# Experiments:
# Assay in all cases: relative viability (nuclei count vs DMSO), 5 days (fraction); higher = more cells survive
# CX-5461 + Dasatinib = compound: Cc1cnc(CNC(=O)c2c(=O)c3ccc(N4CCCN(C)CC4)nc3n3c2sc2ccccc23)cn1 [CX-5461] + Cc1nc(Nc2ncc(C(=O)Nc3c(C)cccc3Cl)s2)cc(N2CCN(CCO)CC2)n1 [Dasatinib] (partner 0.075 µM)
# How it was run: (§1)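 For relative viability, nuclei counts in treated wells were divided by those in vehicle wells. Lung cancer cell lines had been pin-tool dosed in 1536-well plates the day after seeding and cultured for 5 days, then fixed and stained in one step (final 0.05% Triton X-100, 1% formaldehyde, 1 ug/ml Hoechst) and imaged at 4×. Doses were one drug alone or a fixed anchor-drug dose plus five library-drug doses (not always all listed) in √10 steps, and values are duplicate-plate medians.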
# IMD-0354 + Trametinib = compound: O=C(Nc1cc(C(F)(F)F)cc(C(F)(F)F)c1)c1cc(Cl)ccc1O [IMD-0354] + CC(=O)Nc1cccc(-n2c(=O)n(C3CC3)c(=O)c3c(Nc4ccc(I)cc4F)n(C)c(=O)c(C)c32)c1 [Trametinib] (partner 0.02 µM)
# How it was run: as §1
# CX-5461 + Bortezomib = compound: Cc1cnc(CNC(=O)c2c(=O)c3ccc(N4CCCN(C)CC4)nc3n3c2sc2ccccc23)cn1 [CX-5461] + CC(C)C[C@H](NC(=O)[C@H](Cc1ccccc1)NC(=O)c1cnccn1)B(O)O [Bortezomib] (partner 0.002 µM)
# How it was run: as §1
# IMD-0354 + Foretinib = compound: O=C(Nc1cc(C(F)(F)F)cc(C(F)(F)F)c1)c1cc(Cl)ccc1O [IMD-0354] + COc1cc2c(Oc3ccc(NC(=O)C4(C(=O)Nc5ccc(F)cc5)CC4)cc3F)ccnc2cc1OCCCN1CCOCC1 [Foretinib] (partner 0.25 µM)
# How it was run: as §1
Cell Line,relative viability (CX-5461 + Dasatinib; first compound 0.01 µM),relative viability (CX-5461 + Dasatinib; first compound 0.03162 µM),relative viability (CX-5461 + Dasatinib; first compound 0.1 µM),relative viability (CX-5461 + Dasatinib; first compound 1 µM),relative viability (IMD-0354 + Trametinib; first compound 0.04 µM),relative viability (IMD-0354 + Trametinib; first compound 0.1265 µM),relative viability (IMD-0354 + Trametinib; first compound 0.4 µM),relative viability (IMD-0354 + Trametinib; first compound 1.265 µM),relative viability (IMD-0354 + Trametinib; first compound 4 µM),relative viability (CX-5461 + Bortezomib; first compound 0.01 µM),relative viability (CX-5461 + Bortezomib; first compound 0.03162 µM),relative viability (CX-5461 + Bortezomib; first compound 0.1 µM),relative viability (CX-5461 + Bortezomib; first compound 0.3162 µM),relative viability (CX-5461 + Bortezomib; first compound 1 µM),relative viability (IMD-0354 + Foretinib; first compound 0.04 µM),relative viability (IMD-0354 + Foretinib; first compound 0.1265 µM),relative viability (IMD-0354 + Foretinib; first compound 0.4 µM),relative viability (IMD-0354 + Foretinib; first compound 1.265 µM),relative viability (IMD-0354 + Foretinib; first compound 4 µM),relative viability (CX-5461 + Dasatinib; first compound 0.3162 µM)
NCI-H522,0.886,1.04,0.916,0.742,0.749,0.778,0.732,0.6,0.454,–,–,–,–,–,–,–,–,–,–,–
NCI-H1299,–,–,–,–,–,–,–,–,–,1,0.981,1.05,1.04,0.979,1.03,1.06,0.787,0.267,0.179,–
NCI-H1648,–,–,–,–,0.435,0.504,0.369,0.545,0.271,–,–,–,–,–,–,–,–,–,–,–
LK-2,0.258,0.229,0.251,0.195,0.831,0.669,–,0.874,0.255,–,–,–,–,–,1.76,1.14,0.515,1.11,0.222,–
NCI-H2342,0.311,0.317,0.308,0.285,0.763,0.743,0.731,0.77,0.565,–,–,–,–,–,1.08,0.98,0.794,0.735,0.453,0.335
SW 900,0.45,0.541,0.701,0.211,0.711,0.639,0.599,0.154,0.212,–,–,–,–,–,0.886,0.787,0.444,0.562,0.246,0.4
NCI-H1395,0.402,0.414,0.418,0.367,1.07,1.04,1.01,0.453,0.388,–,–,–,–,–,1.08,0.969,0.98,0.449,0.306,0.39
NCI-H1793,0.347,0.409,0.368,0.343,0.346,0.442,0.283,0.211,0.169,–,–,–,–,–,0.844,0.622,0.305,0.22,0.202,–
A549,–,–,–,–,–,–,–,–,–,–,–,–,–,–,0.986,1.02,0.481,0.0713,0.0502,–
NCI-H358,0.146,0.148,0.176,0.12,0.116,0.128,0.14,0.134,0.102,–,–,–,–,–,0.753,0.828,0.372,0.163,0.126,0.0999
NCI-H1563,0.461,0.426,0.464,0.444,–,–,–,–,–,0.894,0.788,0.632,0.742,0.499,1.06,0.936,0.837,0.388,0.44,0.444
ABC-1,0.697,0.582,0.45,0.449,–,–,–,–,–,0.297,0.282,–,0.206,0.313,0.876,1.12,0.854,0.37,0.29,0.384

# Reference: the supplement of paper PMC10307832
